From ChEMBL document CHEMBL5506029 (J Med Chem, 2024)
One block for each compound: values may come before it.

Assays:
[1] = Unbound brain-to-plasma concentration ratio in rat at iv dosed for 4 to 24 hrs by LC-MS/MS analysis; assay type: ADME, organism-based; conditions: time 4-24 hrs; for Kp uu: read-out: K(p,uu,brain)
[2] = Clearance in rat plasma at iv dosed for 4 to 24 hrs by LC-MS/MS analysis; assay type: ADME, organism-based; conditions: time 4-24 hrs
[3] = Unbound clearance in rat plasma at iv dosed for 4 to 24 hrs by LC-MS/MS analysis; assay type: ADME, organism-based; conditions: in vivo, time 4-24 hrs
[4] = Intrinsic clearance in human liver microsomes; assay type: ADME, Microsome; conditions: read-out: CLH
[5] = Intrinsic clearance in human Hepatocyte; assay type: ADME, cell-based; conditions: hepatocytes, read-out: CLH
[6] = AUCinfinity in rat at iv administration; assay type: ADME, organism-based; conditions: in vivo
[7] = AUCinfinity in mouse at iv administration; assay type: ADME, organism-based; conditions: in vivo
[8] = AUCinfinity in Cynomolgus monkey at iv administration; assay type: ADME, organism-based, Macaca fascicularis; conditions: in vivo
[9] = AUCinfinity in iv dosed dog; assay type: ADME, organism-based, Canis lupus familiaris; conditions: in vivo
[10] = Clearance in rat at iv administration; assay type: ADME, organism-based; conditions: in vivo
[11] = Clearance in Cynomolgus monkey at iv administration; assay type: ADME, organism-based, Macaca fascicularis; conditions: in vivo
[12] = Clearance in iv dosed dog; assay type: ADME, organism-based, Canis lupus familiaris; conditions: in vivo
[13] = Unbound clearance in rat at iv administration; assay type: ADME, organism-based; conditions: in vivo
[14] = Unbound clearance in mouse at iv administration; assay type: ADME, organism-based; conditions: in vivo
[15] = Unbound clearance in Cynomolgus monkey at iv administration; assay type: ADME, organism-based, Macaca fascicularis; conditions: in vivo
[16] = Unbound clearance in iv dosed dog; assay type: ADME, organism-based, Canis lupus familiaris; conditions: in vivo
[17] = Volume of distribution at steady state in rat at iv administration; assay type: ADME, organism-based; conditions: in vivo, read-out: Vdss
[18] = Volume of distribution at steady state in mouse at iv administration; assay type: ADME, organism-based; conditions: in vivo, read-out: Vdss
[19] = Volume of distribution at steady state in Cynomolgus monkey at iv administration; assay type: ADME, organism-based, Macaca fascicularis; conditions: in vivo, read-out: Vdss
[20] = Volume of distribution at steady state in iv dosed dog; assay type: ADME, organism-based, Canis lupus familiaris; conditions: in vivo, read-out: Vdss
[21] = Half life in rat at iv administration; assay type: ADME, organism-based; conditions: in vivo
[22] = Half life in mouse at iv administration; assay type: ADME, organism-based; conditions: in vivo
[23] = Half life in Cynomolgus monkey at iv administration; assay type: ADME, organism-based, Macaca fascicularis; conditions: in vivo
[24] = Half life in iv dosed dog; assay type: ADME, organism-based, Canis lupus familiaris; conditions: in vivo
[25] = Tmax in rat at po administration; assay type: ADME, organism-based; conditions: in vivo
[26] = Tmax in mouse at po administration; assay type: ADME, organism-based; conditions: in vivo
[27] = Tmax in Cynomolgus monkey at po administration; assay type: ADME, organism-based, Macaca fascicularis; conditions: in vivo
[28] = Tmax in po dosed dog; assay type: ADME, organism-based, Canis lupus familiaris; conditions: in vivo
[29] = Oral bioavailability in rat; assay type: ADME, organism-based; conditions: in vivo
[30] = Oral bioavailability in mouse; assay type: ADME, organism-based; conditions: in vivo
[31] = Oral bioavailability in Cynomolgus monkey; assay type: ADME, organism-based, Macaca fascicularis; conditions: in vivo
[32] = Oral bioavailability in dog; assay type: ADME, organism-based, Canis lupus familiaris; conditions: in vivo

SMILES: CC(C)Oc1nc2nc(C34COC(C3)C4)cn2cc1C(=O)Nc1cccn(C2CC2)c1=O
Kp uu [1]: 0.4
clearance [2]: 8 mL/min/kg
CL free [3]: 88 mL/min/kg

SMILES: COC[C@@]12CC[C@@](c3cn4cc(C(=O)Nc5cccn([C@H]6C[C@H]6F)c5=O)c(OC(C)C)nc4n3)(CO1)C2
Kp uu [1]: 0.1
clearance [2]: 33 mL/min/kg
CL free [3]: 312 mL/min/kg

SMILES: CC(C)Oc1nc2nc(C34COC(CF)(C3)C4)cn2cc1C(=O)Nc1cccn(C2CC2)c1=O
Kp uu [1]: 0.2
clearance [2]: 9.6 mL/min/kg
CL free [3]: 51 mL/min/kg

SMILES: COCC12CC(c3cn4cc(C(=O)Nc5cccn(C6CC6)c5=O)c(OC(C)C)nc4n3)(CO1)C2
Kp uu [1]: 0.5
clearance [2]: 20.8 mL/min/kg
CL free [3]: 170 mL/min/kg

SMILES: CC(C)Oc1nc2nc([C@@]34CC[C@@](C)(C3)OC4)cn2cc1C(=O)Nc1cccn(C2CC2)c1=O (single isomer, unassigned)
Kp uu [1]: 0.3
clearance [2]: 36 mL/min/kg
CL free [3]: 310 mL/min/kg

SMILES: CC(C)Oc1nc2nc(C34CCC(C)(C3)OC4)cn2cc1C(=O)Nc1cccn([C@H]2C[C@H]2F)c1=O (single isomer, unassigned)
Kp uu [1]: 0.2
clearance [2]: 12.7 mL/min/kg
CL free [3]: 306 mL/min/kg

SMILES: COC[C@@]12CC[C@@](c3cn4cc(C(=O)Nc5cccn(C6CC6)c5=O)c(OC(C)C)nc4n3)(CO1)C2
Kp uu [1]: 0.2
clearance [2]: 17 mL/min/kg
CL free [3]: 281 mL/min/kg

Other lines, results leading:

Kp uu [1]: 0.3
SMILES: CC(C)Oc1nc2nc(C34COC(C)(C3)C4)cn2cc1C(=O)Nc1cccn([C@H]2C[C@H]2F)c1=O (single isomer, unassigned)

Kp uu [1]: 0.4
SMILES: CC(C)Oc1nc2nc(C34COC(C)(C3)C4)cn2cc1C(=O)Nc1cccn([C@H]2C[C@H]2C)c1=O

Kp uu [1]: 0.7
CLint scaled [4]: < 5 mL/min/kg
CLint scaled [5]: 5.1 mL/min/kg
AUC(0-inf) [6]: 1040 ng·h/mL
AUC(0-inf) [7]: 1020 ng·h/mL
AUC(0-inf) [8]: 1130 ng·h/mL
AUC(0-inf) [9]: 1400 ng·h/mL
clearance [10]: 14.2 mL/min/kg
clearance [11]: 15.1 mL/min/kg
clearance [12]: 12.7 mL/min/kg
CL free [13]: 171 mL/min/kg
CL free [14]: 240 mL/min/kg
CL free [15]: 98 mL/min/kg
CL free [16]: 76 mL/min/kg
Vd [17]: 2.9 L/kg
Vd [18]: 1.5 L/kg
Vd [19]: 0.9 L/kg
Vd [20]: 1.4 L/kg
half-life [21]: 2.5 h
half-life [22]: 1.6 h
half-life [23]: 0.8 h
half-life [24]: 1.4 h
Tmax [25]: 0.25 h
Tmax [26]: 0.25 h
Tmax [27]: 1.2 h
Tmax [28]: 0.6 h
bioavailability [29]: 128%
bioavailability [30]: 92%
bioavailability [31]: 61%
bioavailability [32]: 89%
SMILES: CC(C)Oc1nc2nc(C34COC(C)(C3)C4)cn2cc1C(=O)Nc1cccn(C2CC2)c1=O

K(p,uu,brain) ([1]; iv): 0.3
SMILES: Cc1cnc2c(NC(=O)c3cn4cc(C56COC(C)(C5)C6)nc4nc3OC(C)C)cnn2c1
